These results are taken from publication PMC12621184, “Synthesis and Pharmacological Characterization of Nociceptin/Orphanin FQ Dimeric Ligands” (Journal of Medicinal Chemistry, 2025).

Several values for one entry are separate records, joined by “and”; a condition that tells them apart may be missing. Equal values may be shown once. Bridge positions count the residues as written; N and C are the ends. Peptide text beside a SMILES is read from it. I, II: the chains in the order shown. Where only a bound is given, the exact number is not on record here.

The target in experiment [1] is T1, human δ opioid receptor (Homo sapiens, UniProt P41143).
T1 construct: expressed in transfected cells
The experiment in a line: Calcium mobilization assay, CHO cells with δ receptor and chimeric G protein. Conditions: CHO cells coexpressing human δ receptor and GαqG66Di5; 5 experiments in duplicate; read-out: calcium mobilization at δ receptor, concentration up to which inactive. It counts as cell-based. The procedure: Chinese hamster ovary (CHO) cells stably coexpressing the human NOP, μ, or κ opioid receptors and the Gαqi5 protein or the human δ and the GαqG66Di5 protein were used in this assay. , Cells were cultured in DMEM/F-12 (1:1) medium supplemented with 10% FBS, 2 mM L-glutamine, […], 100 IU/mL penicillin, and 100 IU/mL streptomycin. Cells were maintained at 37 °C in a humidified atmosphere with 5% CO2 and were seeded at 50 000 cells/well into 96-well black, clear-bottom plates 24 h before test. Loading for 45 min with a solution consisting of HBSS supplemented with 2.5 mM probenecid, 3 μM Fluo-4 AM, and 0.01% pluronic acid ensures the calcium-sensitive dye (Fluo-4) reaches the needed concentration inside the cell, while the exchange of the solution with 100 μL/well of buffer consisting of HBSS with 20 mM HEPES, 2.5 mM probenecid, and 500 μM Brilliant Black allows for fluorescence background to decrease. Serial dilutions of ligands were prepared in HBSS buffer with 20 mM HEPES and 0.02% bovine serum albumin (BSA) to minimize the ligands’ stickiness to plasticware. The automated microplate reader FlexStation II (Molecular Devices, CA, US) was employed at 37 °C to detect changes in fluorescence intensity. The effects of all compounds were expressed as the maximum change in percentage over the baseline fluorescence measured in samples treated with vehicles. […]
(In general: A change in cytosolic calcium serves as a functional read-out for many receptors and channels.)

The test system of experiment [2] is mouse vas deferens from NOP(−/−) mice. Briefly: Electrically stimulated mouse vas deferens bioassay, NOP(−/−) tissues. The following applies: mVD from CD-1 NOP(−/−) mice; 5 experiments. As to the method:
This study was approved by the Animal Welfare Body of the University of Ferrara and by the Italian Ministry of Health (authorization number CBCC2.N.BXI). Experiments were performed on an isolated mouse vas deferens. All experiments were conducted with mice bred and housed in the University of Ferrara’s animal facility under specific pathogen-free conditions (SPF). All mice were housed in cages with individual ventilation, with a constant temperature of 21 °C, 60% humidity, and a 12 h light/dark cycle. Food and water were provided ad libitum. CD-1 NOP(+/+) and CD-1 NOP(−/−) male mice, aged 9 to 12 months, were used. Animals were sacrificed on the day of the experiment with CO2 overdose. Bioassay experiments were performed as previously described. The tissues were suspended in 5 mL organ bath containing Krebs solution (NaCl 118.5 […]). The Krebs solution was oxygenated with 95% O2 and 5% CO2 and the temperature set at 33 °C with a resting tension of 0.3 g applied to the tissues. Tissues were stimulated through two platinum electrodes with a supramaximal rectangular pulse of 1 ms duration, 0.05 Hz frequency, and 80 V of amplitude. The electrically evoked contractions were measured isotonically by means of Basile strain gauge transducers (Basile, IT) and a recorder with a Power Lab 8 instrument (ADInstruments, CO, U.S.). Following an equilibration period of approximately 60 min, the contractions induced by electrical field stimulation were stable. At this time, cumulative concentration response curves were carried out.
Concentration-response curves to agonists were analyzed by a four-parameter logistic nonlinear regression model: Effect = baseline + (E max – baseline)/(1 + 10^((logEC50–log[ligand])slope)). […] Experimental data were expressed as mean ± sem of at least 5 experiments. Potency values were expressed as the mean and CL95%. In vitro E max values were analyzed by one-way ANOVA, while in vivo latency data were evaluated by one-way ANOVA followed by Dunnett’s post hoc test. […]

For experiment [3], the target named is human NOP (Homo sapiens, UniProt P41146). Briefly: NOP receptor–G protein interaction BRET assay. Type of experiment: biochemical. Also noted: expressed in transfected cells; host or cells: membranes of HEK293 cells stably coexpressing NOP-RLuc and Gβ1-RGFP. Conditions: N = 5 experiments in duplicate. As to the method: A BRET interaction assay was used, as previously detailed in ref , to study the propensity of ligands to evoke interaction between the NOP receptor and to G protein. Membranes taken from HEK293 cells stably coexpressing the fusoproteins NOP-RLuc and Gβ1-RGFP were used. Such cells were grown in DMEM medium supplemented with 10% FBS, 2 mM L-glutamine, […] G418, […] hygromycin B, 100 IU/mL penicillin, and 100 IU/mL streptomycin in a humidified atmosphere with 5% CO2 at 37 °C. Cell membranes were thawed and resuspended in PBS supplemented with 0.01% BSA before the assay, and an amount of 3 μg of total protein was dispensed in each of the 96 wells together with 2 μM Prolume Purple Coelenterazine. All experiments were carried out at room temperature. Ligands were added, and averaged BRET ratios from 10 min measurements were computed. BRET ratios were computed as counts per second (CPS) obtained on a Victor Nivo (PerkinElmer) with 405 (10) nm and 510 (30) nm bandpass filters. Vehicles’ BRET ratios were derived from light passed through 510 divided by that passed through 405 filters. Vehicles BRET values were subtracted from all computations, and data sets were normalized as a fraction of N/OFQ maximal effects.
Concentration-response curves to agonists were analyzed by a four-parameter logistic nonlinear regression model: Effect = baseline + (E max – baseline)/(1 + 10^((logEC50–log[ligand])slope)). […] Experimental data were expressed as mean ± sem of at least 5 experiments. Potency values were expressed as the mean and CL95%. In vitro E max values were analyzed by one-way ANOVA, while in vivo latency data were evaluated by one-way ANOVA followed by Dunnett’s post hoc test. The proportion of mice losing the righting reflex was compared by Fisher’s exact test performed on raw data. GraphPad Prism 10.0 software was used for all of the analyses. The terminology employed is consistent with the International Union of Basic and Clinical Pharmacology (IUPHAR) recommendations. ,
On the technique in general: Bioluminescence resonance energy transfer reports proximity on the nanometre scale.

T1 sequence (P41143 whole entry): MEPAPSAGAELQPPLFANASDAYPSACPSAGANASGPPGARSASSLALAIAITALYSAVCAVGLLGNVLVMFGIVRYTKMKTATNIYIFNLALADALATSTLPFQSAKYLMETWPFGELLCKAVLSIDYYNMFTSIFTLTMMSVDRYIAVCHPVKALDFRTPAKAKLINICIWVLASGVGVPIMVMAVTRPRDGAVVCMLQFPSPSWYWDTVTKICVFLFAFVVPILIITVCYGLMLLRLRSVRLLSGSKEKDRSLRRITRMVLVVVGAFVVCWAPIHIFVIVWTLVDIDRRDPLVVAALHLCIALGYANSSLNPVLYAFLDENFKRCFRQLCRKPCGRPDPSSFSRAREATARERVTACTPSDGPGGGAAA

Take `C[C@H](NC(=O)CNC(=O)[C@@H](NC(=O)[C@H](Cc1ccccc1)NC(=O)CNC(=O)CNC(=O)[C@@H](N)Cc1ccccc1)[C@@H](C)O)C(=O)N[C@@H](CCCNC(=N)N)C(=O)N[C@@H](CCCCN)C(=O)N[C@@H](CO)C(=O)N[C@@H](C)C(=O)N[C@@H](CCCNC(=N)N)C(=O)N[C@@H](CCCCN)C(=O)N[C@@H](CSSC[C@H](NC(=O)[C@H](CCCCN)NC(=O)[C@H](CCCNC(=N)N)NC(=O)[C@H](C)NC(=O)[C@H](CO)NC(=O)[C@H](CCCCN)NC(=O)[C@H](CCCNC(=N)N)NC(=O)[C@H](C)NC(=O)CNC(=O)[C@@H](NC(=O)[C@H](Cc1ccccc1)NC(=O)CNC(=O)CNC(=O)[C@@H](N)Cc1ccccc1)[C@@H](C)O)C(=O)N[C@@H](C)C(=O)N[C@@H](CC(N)=O)C(=O)N[C@@H](CCC(N)=O)C(N)=O)C(=O)N[C@@H](C)C(=O)N[C@@H](CC(N)=O)C(=O)N[C@@H](CCC(N)=O)C(N)=O` [1h, [[Cys^14]N/OFQ-NH2]2] (I: H-FGGFTGARKSARKCANQ-NH2 / II: H-FGGFTGARKSARKCANQ-NH2; disulfide I:14-II:14; N-terminus assumed): the EC50 was more than 1000 nM in experiment [1]; < 1 nM and 0.123 nM in experiment [3] (membranes from HEK293 cells coexpressing NOP-RLuc and Gβ1-RGFP, room temperature, mean (CL95%), read-out: NOP–G protein interaction pEC50 (CL95%) (converted)). In experiment [2], the “effect in mVD tissues from NOP(−/−) mice (in words)” value is reported as “no effect”. In experiment [3] (effects normalized to N/OFQ-NH2 (E max = 1), mean ± sem), the “NOP–G protein interaction E max ± sem” value came to 0.80 ± 0.08.
